Measurements from ChEMBL document CHEMBL4390705, “A new lateral root growth inhibitor from the sponge-derived fungus Aspergillus sp. LS45” (Bioorg Med Chem Lett, 2019).
Active and inactive are the calls of the source. The rule behind the calls is not given here.

Experiments:
CCRF-CEM = assay: Cytotoxicity against human CCRF-CEM cells by MTT assay; type: functional, cell-based
Arabidopsis thaliana [1] = assay: Inhibition of seed germination in Arabidopsis thaliana Columbia-0 assessed as reduction in primary root growth up to 100 uM incubated for 10 days under 16 hrs-light/8 hrs-dark condition by microscopic analysis; type: functional, organism-based
BGC-823 = assay: Cytotoxicity against human BGC823 cells by MTT assay; type: functional, cell-based
Arabidopsis thaliana [2] = assay: Inhibition of seed germination in Arabidopsis thaliana Columbia-0 assessed as reduction in lateral root growth up to 100 uM incubated for 10 days under 16 hrs-light/8 hrs-dark condition by microscopic analysis; type: functional, organism-based
AGS = assay: Cytotoxicity against human AGS cells by MTT assay; type: functional, cell-based
Acetylcholinesterase = target: T1, Acetylcholinesterase (Mus musculus, UniProt P21836); assay: Inhibition of mouse brain homogenate AChE using acetylthiocholine iodide as substrate measured after 15 mins in presence of BChE inhibitor methopropazine hydrochloride by DTNB reagent based colorimetric method; type: tissue-based
T1 sequence (P21836 whole entry): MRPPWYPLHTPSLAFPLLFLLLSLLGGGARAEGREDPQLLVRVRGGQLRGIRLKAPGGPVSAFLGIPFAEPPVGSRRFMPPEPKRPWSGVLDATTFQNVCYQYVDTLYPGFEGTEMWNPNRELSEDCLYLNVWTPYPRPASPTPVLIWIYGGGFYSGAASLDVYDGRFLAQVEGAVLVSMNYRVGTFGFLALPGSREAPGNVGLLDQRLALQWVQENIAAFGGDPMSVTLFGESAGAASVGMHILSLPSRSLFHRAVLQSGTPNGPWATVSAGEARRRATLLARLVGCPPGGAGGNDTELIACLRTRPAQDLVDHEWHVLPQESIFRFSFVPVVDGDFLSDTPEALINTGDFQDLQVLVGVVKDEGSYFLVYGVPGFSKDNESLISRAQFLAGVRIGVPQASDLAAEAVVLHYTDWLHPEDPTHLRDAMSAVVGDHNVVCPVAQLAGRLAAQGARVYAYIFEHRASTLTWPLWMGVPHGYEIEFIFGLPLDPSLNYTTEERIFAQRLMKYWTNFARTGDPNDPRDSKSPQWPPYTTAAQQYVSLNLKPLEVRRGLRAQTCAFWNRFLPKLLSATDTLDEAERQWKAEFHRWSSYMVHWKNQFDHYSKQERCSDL

HCT-116 = assay: Cytotoxicity against human HCT116 cells by MTT assay; type: functional, cell-based
K562 = assay: Cytotoxicity against human K562 cells by MTT assay; type: functional, cell-based
MDA-MB-231 = assay: Cytotoxicity against human MDA-MB-231 cells by MTT assay; type: functional, cell-based
Arabidopsis thaliana [3] = assay: Inhibition of seed germination in Arabidopsis thaliana Columbia-0 assessed as reduction in primary root growth at 50 uM incubated for 10 days under 16 hrs-light/8 hrs-dark condition by microscopic analysis; type: functional, organism-based
Arabidopsis thaliana [4] = assay: Inhibition of seed germination in Arabidopsis thaliana Columbia-0 assessed as reduction in lateral root growth at 50 to 100 uM incubated for 10 days under 16 hrs-light/8 hrs-dark condition by microscopic analysis; type: functional, organism-based
Arabidopsis thaliana [5] = assay: Inhibition of seed germination in Arabidopsis thaliana Columbia-0 assessed as reduction in primary root growth at 100 uM incubated for 10 days under 16 hrs-light/8 hrs-dark condition by microscopic analysis; type: functional, organism-based

| SMILES | IC50 (CCRF-CEM) | inhibition (Arabidopsis thaliana [1]) | IC50 (BGC-823) | inhibition (Arabidopsis thaliana [2]) | IC50 (AGS) | IC50 (Acetylcholinesterase) | IC50 (HCT-116) | IC50 (K562) | IC50 (MDA-MB-231) | inhibition (Arabidopsis thaliana [3]) | inhibition (Arabidopsis thaliana [4]) | inhibition (Arabidopsis thaliana [5]) |
| --- | --- | --- | --- | --- | --- | --- | --- | --- | --- | --- | --- | --- |
| CC[C@H](O)c1oc(=O)cc(OC)c1C | > 50 µM | inactive | > 50 µM | inactive | > 50 µM | > 200 µM | > 50 µM | > 50 µM | > 50 µM | – | – | – |
| CCCC1=C/C(=C\[C@H](O)[C@@H](C)O)OC1=O | > 50 µM | inactive | > 50 µM | inactive | > 50 µM | > 200 µM | > 50 µM | > 50 µM | > 50 µM | – | – | – |
| CCCC1=C/C(=C/[C@H](O)[C@@H](C)O)OC1=O | > 50 µM | – | > 50 µM | – | > 50 µM | > 200 µM | > 50 µM | > 50 µM | > 50 µM | Active | Active | inactive |
| CC(C)c1ccc(CO)c2ccc(C(=O)O)cc12 | 13.8 µM | – | – | – | – | > 200 µM | – | 12.9 µM | – | Active | Active | inactive |
| Nc1cc(F)ccc1NC(=O)c1ccc(CNC(=O)/C=C/c2cccnc2)cc1 [TUCIDINOSTAT] | 0.63 µM | – | – | – | – | – | – | 1.34 µM | – | – | – | – |
